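Where inhibition never reached the appropriate level, the endpoint shown equals the highest concentration tested. Otherwise, values were interpolated linearly from a five-concentration, 48-hour dose response in 96-well plates. Abbreviation: GI50, concentration required for 50% inhibition of growth.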 Activity calls are given as the source filed them. No stated cut-off is given here; in the data, active = GI50 up to about 1.1 µM and inactive = higher.
Assays:
Assay in all cases: growth of human tumour cells (NCI), 48 h
DLD-1 = system: DLD-1
DMS-114 = system: DMS-114
DMS-273 = system: DMS-273
HOP-18 = system: HOP-18
KM-20L2 = system: KM-20L2
LXFL 529 = system: LXFL 529
RXF 631 = system: RXF 631
SNB-78 = system: SNB-78
XF498 = system: XF498

Measured: GI50

NNC(=S)N/N=C(\c1nc2ccc(Cl)cc2nc1O)C(O)c1ccc(Cl)cc1Cl (centres undefined)
inactive: DLD-1 > 100 µM | DMS-114 > 100 µM | DMS-273 > 100 µM | HOP-18 > 100 µM | KM-20L2 > 100 µM | LXFL 529 > 100 µM | RXF 631 > 100 µM | SNB-78 > 100 µM | XF498 > 100 µM

N#CC(NNC(=O)Cc1ccccc1)c1cccc(O)c1 (centres undefined)
inactive: DLD-1 > 100 µM | DMS-114 > 100 µM | DMS-273 > 100 µM | HOP-18 > 100 µM | LXFL 529 > 100 µM | SNB-78 > 100 µM

COC(=O)C(=O)C(C(=O)C1=NS(=O)(=O)c2cc(S(N)(=O)=O)c(Cl)cc2N1)c1nc2ccc(C(=O)c3ccccc3)cc2nc1O (centres undefined)
inactive: DMS-273 > 100 µM | HOP-18 > 100 µM | KM-20L2 > 100 µM | LXFL 529 38.9 µM | RXF 631 86.9 µM | SNB-78 85.1 µM | XF498 39 µM

c1ccc(-c2[nH]c(-c3ccccc3)c(-c3cnccn3)c2-c2cnccn2)cc1
inactive: DLD-1 > 100 µM | DMS-114 > 100 µM | DMS-273 > 100 µM | HOP-18 > 100 µM | KM-20L2 > 100 µM | SNB-78 > 100 µM | XF498 95.7 µM

CC1=C(C(=O)Nc2cccc(C(F)(F)F)c2)C(c2ccccc2F)C(C(=O)Nc2cccc(C(F)(F)F)c2)=C(C)N1
inactive: DLD-1 6.21 µM | DMS-114 3.33 µM | KM-20L2 4.51 µM | LXFL 529 5.57 µM | RXF 631 10 µM | SNB-78 13.9 µM | XF498 2.09 µM

COC(=O)C1=C(c2cc(OC)c(OC)c(OC)c2)OC(c2cc(OC)c(OC)c(OC)c2)C1COC(C)=O (centres undefined)
inactive: DLD-1 26.2 µM | DMS-114 34.7 µM | DMS-273 25.6 µM | KM-20L2 71.6 µM | LXFL 529 34.4 µM | RXF 631 17.4 µM | SNB-78 45.7 µM | XF498 32.4 µM

COC(=O)c1ccc(Cc2ccc(C(=O)OC)o2)o1
inactive: DLD-1 > 378 µM | DMS-273 > 378 µM | HOP-18 38.5 µM | KM-20L2 > 378 µM | LXFL 529 > 378 µM | RXF 631 > 378 µM

Nc1nc2c(nnn2C2C=C(CO)C(O)C2O)c(=O)[nH]1 (centres undefined)
inactive: DLD-1 > 100 µM | DMS-114 > 100 µM | DMS-273 > 100 µM | HOP-18 > 100 µM | KM-20L2 > 100 µM | LXFL 529 > 100 µM | SNB-78 95.3 µM | XF498 > 100 µM

CCc1cccc(CC)c1NC(=O)/C(Cl)=C(/Cl)C(=O)O
inactive: DLD-1 22.8 µM | DMS-114 23.2 µM | DMS-273 50 µM | HOP-18 24.3 µM | KM-20L2 43.8 µM | LXFL 529 13.6 µM | SNB-78 37.7 µM | XF498 22.6 µM

Oc1ncnc2c1CCCN2
inactive: DLD-1 > 100 µM | DMS-114 > 100 µM | HOP-18 16.5 µM | KM-20L2 > 100 µM | LXFL 529 > 100 µM | SNB-78 > 100 µM

CC(C)(Oc1ccc2c(=O)cc(-c3ccccc3)oc2c1)C(=O)Nc1c(Cl)cccc1Cl
inactive: DMS-114 19.7 µM | DMS-273 64.4 µM | HOP-18 > 100 µM | KM-20L2 > 100 µM | LXFL 529 81.7 µM | SNB-78 > 100 µM | XF498 14.3 µM

CC1=C(C(=O)Nc2ccc([N+](=O)[O-])cc2)C(c2ccc(N(C)C)cc2)C(C(=O)Nc2ccc([N+](=O)[O-])cc2)=C(C)N1
inactive: DLD-1 11.9 µM | KM-20L2 11.4 µM | LXFL 529 16.8 µM | SNB-78 29.2 µM

Cc1ccc(Nc2ccc(Nc3ccc(C)cc3)c3c2C(=O)c2c(O)ccc(O)c2C3=O)cc1
inactive: DLD-1 > 100 µM | DMS-114 > 100 µM | DMS-273 > 100 µM | LXFL 529 75.2 µM | SNB-78 68.1 µM | XF498 > 100 µM

From ChEMBL document CHEMBL1201862, “PubChem BioAssay data set” (2004)
